Data on one molecule can be found in BindingDB's records for doi:10.1016/j.bmcl.2013.02.064 (Toronto General Research Institute, 2013).

The nature of the assay: Inhibition of FCgamma receptor in human PBMC assessed as inhibition of opsonized RBC phagocytosis incubated for 1 hr prior to RBC addition measured after 2 hrs by monocyte monolayer assay.

Usually IC50 stands for the point on the concentration scale where inhibition reaches its midpoint. With `Cc1cc(SSc2cc(C)nn2-c2ccccc2)n(-c2ccccc2)n1`, the IC50 turned out to be 100 nM.
